{
  "source": "patent US11622964B2",
  "about": "“Method for destroying cellular mechanical homeostasis and promoting regeneration and repair of tissues and organs, and use thereof” (INSTITUTE OF ZOOLOGY, CHINESE ACADEMY OF SCIENCES, priority 2018, dated 2023)",
  "key": {"human fibroblasts [1]": {"test_system": "human fibroblasts", "assay": "Cellular mechanical homeostasis and cell softening in human fibroblasts (phalloidin staining, immunofluorescence, quantitative PCR)", "assay_type": "cell-based", "excerpt": "FIG. 1A is a schematic diagram of laser confocal scanning."}, "[2]": {"test_system": "human hepatic stellate cells (hLX-2)", "assay": "TGF-β1-induced transformation of human hepatic stellate cells into myofibroblasts", "assay_type": "cell-based", "settings": "20 μM, 3 ng/ml TGF-β1, 7 days", "excerpt": "(§1) In this example, cell models for in vitro fibrosis are respectively built to activate mouse hepatic stellate Cells (mHSCs, FIG. 13(B)), mouse embryonic fibroblasts (MEFs FIG. 13(C)), mouse adult liver, lung, and heart-derived primary mesenchymal cells (priMCs, FIG. 13(D)), and human hepatic stellate cells (hLX-2, FIG. 13(E)) into myofibroblasts through the induction of TGF-β1. The specific experimental procedure is as shown in FIG. 9A: a medium containing 10% serum is used for the initial cell culture; after 24 hours the medium is replaced with low serum medium (or pre-starvation treatment for 16 hours) while adding 3 ng/ml TGF-β1 with DMSO or Bleb (20 μM); after 7 days the expression of myofibroblast activation marker protein (Acta2), collagen (Col1a1, Col1a2, Col3a1, and Col1a2), and matrix metalloproteinases and inhibitors (collagenases: MmP8, and MmP13; gelatinases: MmP2, and MmP9; a metalloproteinase inhibitor: Timp1/2/3) are identified."}, "[3]": {"test_system": "bleomycin-induced skin sclerosis", "assay": "Bleomycin-induced scleroderma model", "assay_type": "in vivo, mice", "settings": "1-3 mg/kg/day intraperitoneal", "excerpt": "Scleroderma is a connective tissue disease characterized by localized or diffuse fibrosis of the skin and internal organs, thereby hardening and shrinking. The disease may cause multisystem injury, its exact cause and pathogenesis are still unclear, and there is no effective treatment means. […] One week after injection of bleomycin, the skin at the injection site on the back of mice begins to thicken and harden, and has poor elasticity; there is no change in hair growth until the end of the injection; meanwhile, induration and incrustation occurs at the injection site, accompanying with superficial ulcers. As for the shaved injection area on the back of the mice in the saline control group, the hair grows continuously, and no significant skin hardening and thickening phenomenon is observed, as shown in FIG. 7B. Treatment group (Bleb): intraperitoneal administration of myosin inhibitor (−)-blebbistatin (1-3 mg/kg/day, dissolved in 2-5% DMSO+30% PEG400+2% Tween 80+ddH2O); control group (con): without (−)-blebbistatin but containing the same amount of DMSO. […] Further experiments confirm that the myosin inhibitor (−)-blebbistatin promotes melanin accumulation in the induration zone and the growth of new hair, as shown in FIG. 7C."}, "liver tissue": {"test_system": "liver tissue", "assay": "Liver tissue rigidity (Young's modulus, Mark-10 ESM303) and second harmonic scanning in CCl4 chronic severe liver damage", "assay_type": "in vivo, mice", "excerpt": "The ICR, C57Bl/6 mice used in the experiment are purchased from SPF (Beijing) Biotechnology Co., Ltd.; elbow tweezers, finger tweezers, scissors, needle holders, suture needles, suture threads are purchased from Asone Trading Co., Ltd.; antibiotics are purchased from Gibco (15240-062). A chronic severe liver damage model induced by CCl4 (the same as Example 4) is constructed, and the mice are sacrificed by cervical dislocation after modeling. […] It can be seen from the above results that, the myosin inhibitor reduces the tissue rigidity during liver damage process."}, "[4]": {"test_system": "CCl4-induced mild hepatic fibrosis", "assay": "CCl4-induced mild hepatic fibrosis model", "assay_type": "in vivo, mice", "settings": "1 mg or 3 mg per kg per day, intraperitoneal or tail vein injection, 1-2 weeks", "protocol": "The ICR, C57Bl/6 mice used in the experiment are purchased from SPF (Beijing) Biotechnology Co., Ltd., carbon tetrachloride is purchased from Aladdin Reagent (Shanghai) Co., Ltd. (C131583-1L), and corn oil is purchased from Sigma (C8267). 8-week-old female mice are selected and housed in the barrier for one week, they are randomly divided into two groups, and respectively injected with CCl4/corn oil (a volume ratio of 2:5) and corn oil. The dose of CCl4 is 0.5 ml/kg, twice a week for 4 weeks. After 4 weeks, the mice are anesthetized with 5% chloral hydrate, and part of the hepatic lobe is taken out, fixing with 4% paraformaldehyde, dehydrating and immersing in wax, then staining with Sirius Red (YY-R20384-100ML) kit for fibrosis, wherein the collagenous fibers are red, as shown in FIG. 2B. After successful identification of the modeling, the drug administration is performed by intraperitoneal injection or tail vein injection. The small molecule is dissolved in dimethyl sulfoxide at a concentration of 1 mg or 3 mg per kg per day; successfully adding 2-5% DMSO+30% propylene glycol+2% Tween 80+ddH2O, and the control group (“Control”) is abbreviated as “Con” in the figure. […]"}, "human fibroblasts [5]": {"test_system": "human fibroblasts", "assay": "Transcriptome sequencing of treated human fibroblasts", "assay_type": "cell-based"}, "[6]": {"test_system": "mouse hepatic stellate cells (mHSCs)", "assay": "TGF-β1-induced transformation of mouse hepatic stellate cells into myofibroblasts", "assay_type": "cell-based", "settings": "20 μM, 3 ng/ml TGF-β1, 7 days", "excerpt": "as §1"}},
  "data": [
    {"smiles": "Cc1ccc2c(c1)C(=O)[C@]1(O)CCN(c3ccccc3)C1=N2", "note": "[(−)-blebbistatin]", "values": [
      {"measurement": "EZH2 protein level and localization", "setting": "human fibroblasts [1]", "result": "down-regulated and it is localized at the cytoplasm"},
      {"measurement": "nucleus morphology", "setting": "human fibroblasts [1]; 20 μM, vs DMSO control", "result": "irregular folds"},
      {"measurement": "stress fibers in the cell (phalloidin staining)", "setting": "human fibroblasts [1]; 20 μM, vs DMSO control", "result": "disintegrated"},
      {"measurement": "cells with obvious nuclear localization of stress effect protein YAP1/TAZ", "setting": "human fibroblasts [1]; after drug treatment", "result": 35, "unit": "%"},
      {"measurement": "proteins related to regulation of cellular mechanical hardness (quantitative PCR)", "setting": "human fibroblasts [1]; after small molecule treatment", "result": "significantly down-regulated"},
      {"measurement": "modification of H3K27 trimethylation (immunofluorescence)", "setting": "human fibroblasts [1]; day 4", "result": "significantly reduced"},
      {"measurement": "active transcriptional region labeled with fluorouridine", "setting": "human fibroblasts [1]; three biological replicates", "result": "also distributed near the periphery of the nucleus"},
      {"measurement": "heterochromatin HP1 proteins", "setting": "human fibroblasts [1]; vs DMSO control", "result": "the control group is significantly stronger than the experimental group"},
      {"measurement": "TGF-β1 induced transformation into myofibroblasts and extracellular matrix synthesis", "setting": "[2]", "result": "significantly inhibits"},
      {"measurement": "inhibitors of metalloproteinases", "setting": "[2]", "result": "down-regulation"},
      {"measurement": "metalloproteinases for degrading extracellular matrix", "setting": "[2]", "result": "promoting the up-regulation"},
      {"measurement": "FGF9 expression (immunofluorescence)", "setting": "[3]", "result": "more FGF9 is expressed"},
      {"measurement": "KRT17 positive cells relative to KRT18 positive cells (immunostaining)", "setting": "[3]", "result": "much more"},
      {"measurement": "NeuN expression in the induration zone (neural fate)", "setting": "[3]", "result": "expressed in some cells"},
      {"measurement": "accumulation of mesenchymal fibers (H&E and Masson staining)", "setting": "[3]", "result": "significantly reduces"},
      {"measurement": "epidermal and dermal thickness", "setting": "[3]", "result": "significantly reduces"},
      {"measurement": "hair follicle cell proliferation (Ki-67 staining)", "setting": "[3]", "result": "promotes"},
      {"measurement": "hair follicle regeneration (KRT17/PCNA co-immunostaining)", "setting": "[3]", "result": "promotes hair follicle regeneration"},
      {"measurement": "melanin accumulation in the induration zone and growth of new hair", "setting": "[3]", "result": "promotes"},
      {"measurement": "number of hair follicles or glands", "setting": "[3]", "result": "promotes"},
      {"measurement": "degree of induration and incrustation", "setting": "[3]; after 3 weeks of treatment", "result": "significantly reduced"},
      {"measurement": "rigidity of liver tissue (Young's modulus)", "setting": "liver tissue; day 7 of the treatment", "result": "significantly reduces"},
      {"measurement": "massive parallel array of fibers in the liver tissue (second harmonic intravital scanning)", "setting": "liver tissue; mouse, in vivo", "result": "reduced"},
      {"measurement": "fibrosis (Sirius red staining)", "setting": "[4]", "result": "significantly inhibits"},
      {"measurement": "DNA replication, homologous recombination, mismatch repair, nucleotide excision repair and base excision repair related genes", "setting": "human fibroblasts [5]; 5-50 μM, after 6 hours", "result": "significantly upregulated"},
      {"measurement": "important genes involved in homologous recombination", "setting": "human fibroblasts [5]; 5-50 μM, after 6 hours", "result": "significantly upregulated"},
      {"measurement": "genes related to initiation of regeneration (such as FST) and neurogenesis-related genes", "setting": "human fibroblasts [5]; after induction for 22 days under the neural induction system", "result": "significantly upregulated"},
      {"measurement": "mRNA expression of general stress response genes", "setting": "human fibroblasts [5]; day 1 and day 2", "result": "begins to downregulate"},
      {"measurement": "genes related to general stress response (HSP70 family, HSP90)", "setting": "human fibroblasts [5]; early 6 hours of the induction", "result": "upregulated"},
      {"measurement": "TGF-β1 induced transformation into myofibroblasts and extracellular matrix synthesis", "setting": "[6]", "result": "significantly inhibits"}
    ]}
  ]
}
